Measured values as given in ChEMBL document CHEMBL3137667, “[Drug-induced liver injury; fourteenth updated edition of the bibliographic database of liver injuries and related drugs]” (Gastroenterol Clin Biol, 2004).

Experiments:
[1] = Highest frequency of moderate liver toxicity observed during clinical trials, expressed as a percentage. [column '% BIOL' in source]; conditions: human
[2] = Highest frequency of acute liver toxicity observed during clinical trials, expressed as a percentage. [column '% AIGUE' in source]; conditions: human
[3] = Presence of at least one case with successful reintroduction. [column 'REINT' in source]; conditions: human
[4] = Comments (NB not yet translated). [column 'COMMENTAIRES' in source]; conditions: human
[5] = Times to onset, minimal and maximal, observed in the indexed observations. [column 'DELAI' in source]; conditions: human
[6] = Proposed mechanism(s) of liver damage. [column 'MEC' in source]; conditions: human
[7] = human, serum
[8] = human, serum; remark: listed apart in the source
[9] = human
[10] = human; remark: listed apart in the source
[11] = human; remark: listed apart in the source
[12] = human, serum, 4383 h
[13] = human; remark: listed apart in the source
[14] = human; remark: listed apart in the source
[15] = human; remark: listed apart in the source
[16] = human; remark: listed apart in the source
[17] = human; remark: listed apart in the source
[18] = human; remark: listed apart in the source
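Throughout, for Hepatotoxicity (association with vascular disease): count of indexed literature references reporting vascular liver injury in humans, e.g. peliosis hepatitis, hepatic veno-occlusive disease or Budd-Chiari syndrome.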
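Throughout, for Hepatotoxicity (benign tumour): value is a count of indexed literature references citing a benign tumour confirmed by histopathology.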
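Throughout, for Hepatotoxicity (choleostasis): human cholestatic liver injury, shown by histopathology or by peak ALT or AST elevation over alkaline phosphatase ratio below 2, value counts indexed literature reports.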
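Throughout, for Hepatotoxicity (chronic liver disease): chronic liver injury confirmed by histopathology or persistently raised serum aminotransferase activity beyond 6 months, value given as the count of indexed literature references.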
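Throughout, for Hepatotoxicity (cirrhosis): value is a count of indexed literature references reporting cirrhosis confirmed by histopathology.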
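Throughout, for Hepatotoxicity (cytolytic): human cytolytic liver injury, shown by histopathology or by a ratio above 5 of peak ALT or AST elevation to alkaline phosphatase elevation, value counts indexed references.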
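Throughout, for Hepatotoxicity (granulomatous hepatitis): value is a count of indexed literature references reporting granulomatous liver disease confirmed by histopathology.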
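Throughout, for Hepatotoxicity (malignant tumour): malignant tumour confirmed by histopathology, value gives the count of indexed literature references reporting it.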
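Throughout, for Hepatotoxicity (severe hepatitis): human clinical data: severe hepatitis, meaning potentially life-threatening liver failure or clinically observed cases, the value counts how many indexed literature references report it.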
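Throughout, for Hepatotoxicity (steatosis): steatosis confirmed by histopathology, value is the count of indexed references.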

Compound | Hepatotoxicity (moderate) [1] [%] | Hepatotoxicity (acute) [2] [%] | Hepatotoxicity (successful reintroduction) [3] | Hepatotoxicity (comment) [4] | Hepatotoxicity (time to onset) [5] | Hepatotoxicity (mechanism) [6] | Hepatotoxicity (moderate) [7] | Hepatotoxicity (acute) [8] | Hepatotoxicity (cytolytic) [9] | Hepatotoxicity (choleostasis) [10] | Hepatotoxicity (severe hepatitis) [11] | Hepatotoxicity (chronic liver disease) [12] | Hepatotoxicity (cirrhosis) [13] | Hepatotoxicity (granulomatous hepatitis) [14] | Hepatotoxicity (association with vascular disease) [15] | Hepatotoxicity (steatosis) [16] | Hepatotoxicity (malignant tumour) [17] | Hepatotoxicity (benign tumour) [18] | Hepatotoxicity (moderate) ([1]; Liver) [%] | Hepatotoxicity (acute) ([2]; Liver) [%] | further results
INTERFERON ALFA-2B | 87.5 | 0 | yes | AGGRAVATION_CBP/HEPATITE_AUTOIMMUNE/HVB/HVC_CHRONIQUE CHOLANGITE | 1 week - 1 year | Dose-dependant | 52 | 13 | 8 | 2 | 7 | 0 | 0 | 3 | 0 | 0 | 0 | 0 |  |  | 
Oc1ncnc2[nH]ncc12 [ALLOPURINOL] | 3.1 | 0.1 | yes | CHOLANGITE RC/METHYLDOPA REACTIVATION_HSV6 | 6 days - 5 years | Allergic | 14 | 47 | 26 | 12 | 12 | 0 | 0 | 13 | 0 | 4 | 0 | 0 |  |  | 
Sc1ncnc2nc[nH]c12 [MERCAPTOPURINE ANHYDROUS] |  |  | yes | I/DOXORUBICINE CHOLANGITE | 2 days - 2 years |  | 13 | 30 |  |  |  | 0 | 0 |  | 2 | 0 | 3 | 0 | 53 | 4.9 | Hepatotoxicity (mechanism) ([6]; Liver): Dose-dependant; Hepatotoxicity (cytolytic) ([9]; Liver): 15; Hepatotoxicity (choleostasis) ([10]; Liver): 15; Hepatotoxicity (severe hepatitis) ([11]; Liver): 5; Hepatotoxicity (granulomatous hepatitis) ([14]; Liver): 0
CCN(CC)CCNC(=O)c1ccc(N)cc1 [PROCAINAMIDE] |  |  | yes | AC_ANTI-M3 | 3 hours - 3 months | Allergic | 1 | 4 | 1 | 4 |  | 0 | 0 | 4 | 0 | 0 | 0 | 0 | 0 | 0 | Hepatotoxicity (severe hepatitis) ([11]; Liver): 0
CCC1(c2ccccc2)C(=O)NC(=O)NC1=O [PHENOBARBITAL] | 0 | 0 | yes | I/PARACETAMOL AC_ANTI-N/-MF CHOLANGITE | 6 days - 2 years | Allergic | 8 | 30 | 23 | 4 | 10 | 1 | 0 | 1 | 0 | 1 | 0 | 0 |  |  | 
CCn1cc(C(=O)O)c(=O)c2cc(F)c(N3CCNCC3)cc21 [NORFLOXACIN] |  |  | yes | AC_ANTI-N | 1 day - 10 days |  | 15 | 9 |  |  |  | 0 | 0 |  | 0 | 0 | 0 | 0 | 7.7 | 0 | Hepatotoxicity (mechanism) ([6]; Liver): Allergic; Hepatotoxicity (cytolytic) ([9]; Liver): 3; Hepatotoxicity (choleostasis) ([10]; Liver): 6; Hepatotoxicity (severe hepatitis) ([11]; Liver): 0; Hepatotoxicity (granulomatous hepatitis) ([14]; Liver): 0
CN1C(C(=O)Nc2ccccn2)=C(O)c2ccccc2S1(=O)=O [PIROXICAM] | 73 | 0.8 | yes | AC_ANTI-N CHOLESTASE_PROLONGEE | 3 days - 1 year | Allergic, Toxic | 12 | 19 | 13 | 10 | 5 | 0 | 0 | 1 | 0 | 0 | 0 | 0 |  |  | 
CCOC(=O)n1ccn(C)c1=S [CARBIMAZOLE] | 0 | 0 | yes | RC/METHIMAZOLE/BENZYLTHIOURACILE | 1 day - 5 years | Allergic | 2 | 18 | 5 | 14 | 3 | 0 | 0 | 1 | 0 | 2 | 0 | 0 |  |  | 
O=C(OCC(O)CO)c1ccccc1Nc1ccnc2cc(Cl)ccc12 (configuration not stated) [GLAFENINE] |  |  | yes | LITHIASE | 2 days - 8 months |  | 2 | 14 |  |  |  | 5 | 5 |  | 0 | 0 | 0 | 0 | 0 | 0 | Hepatotoxicity (mechanism) ([6]; Liver): Allergic; Hepatotoxicity (cytolytic) ([9]; Liver): 12; Hepatotoxicity (choleostasis) ([10]; Liver): 2; Hepatotoxicity (severe hepatitis) ([11]; Liver): 7; Hepatotoxicity (granulomatous hepatitis) ([14]; Liver): 0
